Measured values reported in ChEMBL document CHEMBL1144896 (2003).

Assays:
NCI-H1299 [1] = experiment: Compound was tested for human telomerase reverse transcriptase-SEAP (hTERT-SEAP) activity in non-small cell lung cancer H1299 cell at 2.6 uM concentration; assay type: functional
BJ [2] = experiment: hTERT-SEAP (Human telomerase reverse transcriptase-SEAP) activity in immortalized hTERT-BJI at 26 uM concentration and level of cell viability determined in MTT assay; assay type: functional
NCI-H1299 [3] = experiment: hTERT-SEAP (Human telomerase reverse transcriptase-SEAP) activity in non-small cell lung cancer H1299 cell at 260.0 uM concentration and level of cell viability determined in MTT assay; assay type: functional
BJ [4] = experiment: Compound was tested for human telomerase reverse transcriptase-SEAP (hTERT-SEAP) activity in immortalized hTERT-BJI at 260.0 uM concentration; assay type: functional
NCI-H1299 [5] = experiment: hTERT-SEAP (Human telomerase reverse transcriptase-SEAP) activity in non-small cell lung cancer H1299 cell at 26 uM concentration and level of cell viability determined in MTT assay; assay type: functional
BJ [6] = experiment: hTERT-SEAP (Human telomerase reverse transcriptase-SEAP) activity in immortalized hTERT-BJI at 260.0 uM concentration and level of cell viability determined in MTT assay; assay type: functional
NCI-H1299 [7] = experiment: hTERT-SEAP (Human telomerase reverse transcriptase-SEAP) activity in non-small cell lung cancer H1299 cell at 2.6 uM concentration and level of cell viability determined in MTT assay; assay type: functional
BJ [8] = experiment: Compound was tested for human telomerase reverse transcriptase-SEAP (hTERT-SEAP) activity in immortalized hTERT-BJI at 26 uM concentration; assay type: functional
NCI-H1299 [9] = experiment: Compound was tested for human telomerase reverse transcriptase-SEAP (hTERT-SEAP) activity in non-small cell lung cancer H1299 cell at 26 uM concentration; assay type: functional
NCI-H1299 [10] = experiment: Compound was tested for human telomerase reverse transcriptase-SEAP (hTERT-SEAP) activity in non-small cell lung cancer H1299 cell at 260.0 uM concentration; assay type: functional
BJ [11] = experiment: pPCMV-SEAP (cytomegalovirus-SEAP) activity in immortalized hTERT-BJ1 at 2.8 uM concentration and level of cell viability determined in MTT assay; assay type: functional, Homo sapiens
NCI-H1299 [12] = experiment: hTERT-SEAP (Human telomerase reverse transcriptase-SEAP) activity in non-small cell lung cancer H1299 cell at 28 uM concentration and level of cell viability determined in MTT assay; assay type: functional
BJ [13] = experiment: Compound was tested for human telomerase reverse transcriptase-SEAP (hTERT-SEAP) activity in immortalized hTERT-BJI at 2.8 uM concentration; assay type: functional
BJ [14] = experiment: hTERT-SEAP (Human telomerase reverse transcriptase-SEAP) activity in immortalized hTERT-BJI at 280.0 uM concentration and level of cell viability determined in MTT assay; assay type: functional
BJ [15] = experiment: hTERT-SEAP (Human telomerase reverse transcriptase-SEAP) activity in immortalized hTERT-BJI at 2.8 uM concentration and level of cell viability determined in MTT assay; assay type: functional
BJ [16] = experiment: Compound was tested for human telomerase reverse transcriptase-SEAP (hTERT-SEAP) activity in immortalized hTERT-BJI at 280.0 uM concentration; assay type: functional
BJ [17] = experiment: Compound was tested for cytomegalovirus or (pPCMV-SEAP) activity in immortalized hTERT-BJ1 at 2.8 uM concentration; assay type: functional, Homo sapiens
NCI-H1299 [18] = experiment: hTERT-SEAP (Human telomerase reverse transcriptase-SEAP) activity in non-small cell lung cancer H1299 cell at 280.0 uM concentration and level of cell viability determined in MTT assay; assay type: functional
BJ [19] = experiment: Compound was tested for cytomegalovirus or (pPCMV-SEAP) activity in immortalized hTERT-BJ1 at 28 uM concentration; assay type: functional, Homo sapiens
NCI-H1299 [20] = experiment: Compound was tested for human telomerase reverse transcriptase-SEAP (hTERT-SEAP) activity in non-small cell lung cancer H1299 cell at 2.8 uM concentration; assay type: functional
BJ [21] = experiment: hTERT-SEAP (Human telomerase reverse transcriptase-SEAP) activity in immortalized hTERT-BJI at 28.0 uM concentration and level of cell viability determined in MTT assay; assay type: functional
NCI-H1299 [22] = experiment: Compound was tested for human telomerase reverse transcriptase-SEAP (hTERT-SEAP) activity in non-small cell lung cancer H1299 cell at 28.0 uM concentration; assay type: functional
BJ [23] = experiment: Compound was tested for cytomegalovirus or (pPCMV-SEAP) activity in immortalized hTERT-BJ1 at 280 uM concentration; assay type: functional, Homo sapiens
NCI-H1299 [24] = experiment: Compound was tested for human telomerase reverse transcriptase-SEAP (hTERT-SEAP) activity in non-small cell lung cancer H1299 cell at 280.0 uM concentration; assay type: functional
NCI-H1299 [25] = experiment: hTERT-SEAP (Human telomerase reverse transcriptase-SEAP) activity in non-small cell lung cancer H1299 cell at 2.8 uM concentration and level of cell viability determined in MTT assay; assay type: functional
BJ [26] = experiment: pPCMV-SEAP (cytomegalovirus-SEAP) activity in immortalized hTERT-BJ1 at 280 uM concentration and level of cell viability determined in MTT assay; assay type: functional, Homo sapiens
BJ [27] = experiment: pPCMV-SEAP (cytomegalovirus-SEAP) activity in immortalized hTERT-BJ1 at 28 uM concentration and level of cell viability determined in MTT assay; assay type: functional, Homo sapiens
BJ [28] = experiment: Compound was tested for human telomerase reverse transcriptase-SEAP (hTERT-SEAP) activity in immortalized hTERT-BJI at 28.0 uM concentration; assay type: functional
BJ [29] = experiment: Compound was tested for human telomerase reverse transcriptase-SEAP (hTERT-SEAP) activity in immortalized hTERT-BJI at 20 uM concentration; assay type: functional
BJ [30] = experiment: hTERT-SEAP (Human telomerase reverse transcriptase-SEAP) activity in immortalized hTERT-BJI at 20 uM concentration and level of cell viability determined in MTT assay; assay type: functional
NCI-H1299 [31] = experiment: (§1) hTERT-SEAP (Human telomerase reverse transcriptase-SEAP) activity in non-small cell lung cancer H1299 cell at 2.0 uM concentration and level of cell viability determined in MTT assay; assay type: functional
NCI-H1299 [32] = experiment: hTERT-SEAP (Human telomerase reverse transcriptase-SEAP) activity in non-small cell lung cancer H1299 cell at 200.0 uM concentration and level of cell viability determined in MTT assay; assay type: functional
NCI-H1299 [33] = experiment: Compound was tested for human telomerase reverse transcriptase-SEAP (hTERT-SEAP) activity in non-small cell lung cancer H1299 cell at 200.0 uM concentration; assay type: functional
NCI-H1299 [34] = experiment: as §1; assay type: functional; remark: listed apart in the source
BJ [35] = experiment: Compound was tested for human telomerase reverse transcriptase-SEAP (hTERT-SEAP) activity in immortalized hTERT-BJI at 200.0 uM concentration; assay type: functional
NCI-H1299 [36] = experiment: Compound was tested for human telomerase reverse transcriptase-SEAP (hTERT-SEAP) activity in non-small cell lung cancer H1299 cell at 2.0 uM concentration; assay type: functional
NCI-H1299 [37] = experiment: hTERT-SEAP (Human telomerase reverse transcriptase-SEAP) activity in non-small cell lung cancer H1299 cell at 20 uM concentration and level of cell viability determined in MTT assay; assay type: functional
BJ [38] = experiment: hTERT-SEAP (Human telomerase reverse transcriptase-SEAP) activity in immortalized hTERT-BJI at 200.0 uM concentration and level of cell viability determined in MTT assay; assay type: functional
NCI-H1299 [39] = experiment: Compound was tested for human telomerase reverse transcriptase-SEAP (hTERT-SEAP) activity in non-small cell lung cancer H1299 cell at 20 uM concentration; assay type: functional

SMILES: CCCC(=O)Oc1cccc2c1C(=O)c1cccc(OC(=O)CCC)c1C2=O
- Relative SEAP activity (NCI-H1299 [1]): 114%
- Relative viability (BJ [2]): 106%
- Relative viability (NCI-H1299 [3]): 87%
- Relative SEAP activity (BJ [4]): 134%
- Relative viability (NCI-H1299 [5]): 106%
- Relative viability (BJ [6]): 85%
- Relative viability (NCI-H1299 [7]): 107%
- Relative SEAP activity (BJ [8]): 119%
- Relative SEAP activity (NCI-H1299 [9]): 118%
- Relative SEAP activity (NCI-H1299 [10]): 111%

SMILES: CCC(=O)Oc1cccc2c1C(=O)c1cccc(OC(=O)CC)c1C2=O
- Relative viability (BJ [11]): 114%
- Relative viability (NCI-H1299 [12]): 116%
- Relative SEAP activity (BJ [13]): 131%
- Relative viability (BJ [14]): 93%
- Relative viability (BJ [15]): 99%
- Relative SEAP activity (BJ [16]): 161%
- Relative SEAP activity (BJ [17]): 101%
- Relative viability (NCI-H1299 [18]): 87%
- Relative SEAP activity (BJ [19]): 112%
- Relative SEAP activity (NCI-H1299 [20]): 103%
- Relative viability (BJ [21]): 109%
- Relative SEAP activity (NCI-H1299 [22]): 107%
- Relative SEAP activity (BJ [23]): 138%
- Relative SEAP activity (NCI-H1299 [24]): 97%
- Relative viability (NCI-H1299 [25]): 116%
- Relative viability (BJ [26]): 94%
- Relative viability (BJ [27]): 110%
- Relative SEAP activity (BJ [28]): 152%

SMILES: O=C(CCc1ccccc1)Oc1cccc2c1C(=O)c1cccc(OC(=O)CCc3ccccc3)c1C2=O
- Relative SEAP activity (BJ [29]): 124%
- Relative viability (BJ [30]): 106%
- Relative viability (NCI-H1299 [31]): 111%
- Relative viability (NCI-H1299 [32]): 54%
- Relative SEAP activity (NCI-H1299 [33]): 89%
- Relative viability (NCI-H1299 [34]): 111%
- Relative SEAP activity (BJ [35]): 110%
- Relative SEAP activity (NCI-H1299 [36]): 94%
- Relative viability (NCI-H1299 [37]): 101%
- Relative viability (BJ [38]): 76%
- Relative SEAP activity (NCI-H1299 [39]): 98%
